Legend:
[1] = molecular target: T1, Gamma-aminobutyric acid receptor subunit alpha-5 (Homo sapiens) (UniProt P31644); test: Binding affinity to GABA-A alpha5 (unknown origin) assessed as reduction in DMCM induced current relative to DMCM
T1 sequence (whole entry): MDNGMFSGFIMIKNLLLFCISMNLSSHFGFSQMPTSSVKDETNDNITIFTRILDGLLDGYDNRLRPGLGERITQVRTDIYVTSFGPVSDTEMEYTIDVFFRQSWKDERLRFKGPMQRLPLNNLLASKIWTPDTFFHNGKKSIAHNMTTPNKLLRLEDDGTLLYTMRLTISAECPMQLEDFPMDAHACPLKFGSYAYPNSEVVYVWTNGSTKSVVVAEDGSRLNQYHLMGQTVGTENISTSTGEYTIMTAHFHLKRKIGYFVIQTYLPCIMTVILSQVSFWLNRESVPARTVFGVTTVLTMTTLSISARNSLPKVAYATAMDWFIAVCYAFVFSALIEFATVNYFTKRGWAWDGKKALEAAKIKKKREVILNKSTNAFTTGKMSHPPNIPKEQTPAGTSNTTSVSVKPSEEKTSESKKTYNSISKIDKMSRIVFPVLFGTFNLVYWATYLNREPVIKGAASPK

[2] = molecular target: T2, Gamma-aminobutyric acid receptor subunit alpha-2 (Homo sapiens) (UniProt P47869); test: Binding affinity to GABA-A alpha2 (unknown origin) assessed as reduction in DMCM induced current relative to DMCM
T2 sequence (whole entry): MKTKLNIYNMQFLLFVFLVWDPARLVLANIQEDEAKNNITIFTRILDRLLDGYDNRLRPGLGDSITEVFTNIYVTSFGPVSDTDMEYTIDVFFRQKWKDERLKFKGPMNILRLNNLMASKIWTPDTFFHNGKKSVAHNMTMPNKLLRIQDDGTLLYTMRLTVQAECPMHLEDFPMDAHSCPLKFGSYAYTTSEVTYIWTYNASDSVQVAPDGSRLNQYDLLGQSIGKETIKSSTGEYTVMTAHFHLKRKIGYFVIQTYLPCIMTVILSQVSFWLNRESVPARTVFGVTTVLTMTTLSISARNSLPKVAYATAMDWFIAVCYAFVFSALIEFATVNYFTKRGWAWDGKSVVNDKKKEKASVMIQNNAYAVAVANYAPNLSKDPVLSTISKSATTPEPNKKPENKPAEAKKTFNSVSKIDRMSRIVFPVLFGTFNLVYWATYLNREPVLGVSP

[3] = tested on: Homo sapiens; test: In vivo receptor occupancy at GABAA receptor in human assessed as brain concentration causing reduction in [11C]-flumazenil receptor labeling at 2 mg after 1 hr by PET relative to control; type: functional
[4] = molecular target: T3, Gamma-aminobutyric acid receptor subunit alpha-1 (Homo sapiens) (UniProt P14867); test: Negative allosteric modulation of GABA-A alpha1 (unknown origin) assessed as reduction in DMCM induced current relative to DMCM
T3 sequence (whole entry): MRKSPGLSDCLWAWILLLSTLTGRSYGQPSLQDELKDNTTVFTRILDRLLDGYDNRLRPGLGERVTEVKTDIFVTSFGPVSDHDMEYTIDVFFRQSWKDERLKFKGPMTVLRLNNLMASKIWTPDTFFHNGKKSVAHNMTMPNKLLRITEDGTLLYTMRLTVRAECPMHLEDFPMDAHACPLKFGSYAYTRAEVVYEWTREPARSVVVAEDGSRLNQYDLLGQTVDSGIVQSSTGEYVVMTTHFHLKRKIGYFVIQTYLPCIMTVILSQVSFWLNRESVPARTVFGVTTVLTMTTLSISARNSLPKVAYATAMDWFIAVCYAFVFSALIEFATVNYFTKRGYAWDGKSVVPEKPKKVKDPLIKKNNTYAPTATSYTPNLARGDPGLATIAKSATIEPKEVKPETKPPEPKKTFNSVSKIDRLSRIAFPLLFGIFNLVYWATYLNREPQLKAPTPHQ

[5] = molecular target: T4, Gamma-aminobutyric acid receptor subunit alpha-3 (Homo sapiens, UniProt P34903); test: Binding affinity to GABA-A alpha3 (unknown origin)
T4 sequence (P34903 whole entry): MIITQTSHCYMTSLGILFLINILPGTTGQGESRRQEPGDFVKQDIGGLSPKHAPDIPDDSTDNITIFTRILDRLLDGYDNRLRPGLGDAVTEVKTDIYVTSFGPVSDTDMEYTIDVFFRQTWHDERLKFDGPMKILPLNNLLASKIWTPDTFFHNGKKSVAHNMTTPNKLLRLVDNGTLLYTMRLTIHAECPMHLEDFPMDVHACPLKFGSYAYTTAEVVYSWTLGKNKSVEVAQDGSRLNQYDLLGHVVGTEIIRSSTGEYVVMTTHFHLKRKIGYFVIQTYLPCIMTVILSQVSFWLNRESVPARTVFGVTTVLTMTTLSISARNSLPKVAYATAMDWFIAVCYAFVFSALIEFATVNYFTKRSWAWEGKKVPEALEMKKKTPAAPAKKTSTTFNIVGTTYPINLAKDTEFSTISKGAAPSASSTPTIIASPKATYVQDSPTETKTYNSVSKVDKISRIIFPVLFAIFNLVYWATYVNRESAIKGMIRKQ

[6] = molecular target: T5, Gamma-aminobutyric acid receptor subunit alpha-2 (Homo sapiens, UniProt P47869); test: Binding affinity to GABA-A alpha2 (unknown origin)
T5 sequence (P47869 whole entry): T2 sequence (whole entry)

[7] = molecular target: T6, Gamma-aminobutyric acid receptor subunit alpha-3 (Homo sapiens) (UniProt P34903); test: Binding affinity to GABA-A alpha3 (unknown origin) assessed as reduction in DMCM induced current relative to DMCM
T6 sequence (whole entry): T4 sequence (P34903 whole entry)

[8] = molecular target: T7, Gamma-aminobutyric acid receptor subunit alpha-5 (Homo sapiens, UniProt P31644); test: Binding affinity to GABA-A alpha5 (unknown origin)
T7 sequence (P31644 whole entry): T1 sequence (whole entry)

[9] = tested on: Rattus norvegicus; test: In vivo receptor occupancy at GABAA receptor in po dosed rat assessed as brain concentration causing 50% reduction in [3H]-flumazenil receptor labeling; type: functional
[10] = tested on: Mus musculus; test: In vivo receptor occupancy at GABAA receptor in po dosed mouse assessed as brain concentration causing 50% reduction in [3H]-flumazenil receptor labeling; type: functional
[11] = tested on: Homo sapiens; test: In vivo receptor occupancy at GABAA receptor in po dosed human assessed as plasma concentration causing 50% reduction in [11C]-flumazenil receptor labeling; type: functional
[12] = molecular target: T8, Gamma-aminobutyric acid receptor subunit alpha-1 (Homo sapiens, UniProt P14867); test: Binding affinity to GABA-A alpha1 (unknown origin)
T8 sequence (P14867 whole entry): T3 sequence (whole entry)

[13] = tested on: Rattus norvegicus; test: In vivo receptor occupancy at GABAA receptor in po dosed Sprague-Dawley rat assessed as brain concentration causing 50% reduction in [3H]-flumazenil receptor labeling after 0.5 hrs; type: functional
[14] = tested on: Rattus norvegicus; test: In vivo receptor occupancy at GABAA receptor in po dosed Sprague-Dawley rat assessed as plasma concentration causing 50% reduction in [3H]-flumazenil receptor labeling after 0.5 hrs; type: functional
[15] = tested on: Rhesus monkey; test: In vivo receptor occupancy at GABAA receptor in iv dosed rhesus monkey assessed as plasma concentration causing 50% reduction in [11C]-flumazenil receptor labeling by PET method; type: functional, Macaca mulatta
[16] = tested on: Homo sapiens; test: In vivo receptor occupancy at GABAA receptor in human at 5 mg, po relative to control; type: functional

| SMILES | Efficacy [1] | Efficacy [2] | Occ [3] [%] | Efficacy [4] | Ki [5] [nM] | Ki [6] [nM] | Efficacy [7] | Ki [8] [nM] | Occ50 [9] [mg/kg] | Occ50 [10] [mg/kg] | Occ50 [11] [ng/mL] | Ki [12] [nM] | Occ50 [13] [mg/kg] | Occ50 [14] [ng/mL] | Occ50 [15] [ng/mL] | Occ [16] [%] |
| --- | --- | --- | --- | --- | --- | --- | --- | --- | --- | --- | --- | --- | --- | --- | --- | --- |
| Cc1cc(-c2nnc3c4ccccc4c(OCc4cn(C)nn4)nn23)no1 | -0.7 | 0.1 | 50 | -0.25 | 0.61 | 0.58 | -0.11 | 0.66 | 0.12 | 0.25 | 10 | 0.88 |  |  |  |  |
| Cc1cc(-c2nncc3c(C(C)(C)C)c(OCc4ncnn4C)nn23)no1 |  |  |  |  | 0.77 | 0.85 |  |  |  |  |  | 0.83 | 0.39 | 15 | 21 | 75 |
